Source: ChEMBL document CHEMBL4033726, “Design of potent dipeptidyl peptidase IV (DPP-4) inhibitors by employing a strategy to form a salt bridge with Lys554” (Bioorg Med Chem Lett, 2017)

Experiments:
Dipeptidyl peptidase 4 = Dipeptidyl peptidase 4 (Homo sapiens, UniProt P27487)
Description: Inhibition of human DPP4 purified from Caco2 cells pre-incubated for 15 mins before Gly-Pro-pNA substrate addition and measured after 60 mins

Rattus norvegicus = assay: Ex vivo inhibition of DPP4 in Sprague-Dawley rat plasma at 1 mg/kg, po after 1 to 6 hrs using Gly-Pro-pNA substrate; assay type: functional
Dipeptidyl peptidase 8 = Dipeptidyl peptidase 8 (Homo sapiens, UniProt Q6V1X1); assay: Inhibition of FLAG-tagged human DPP8 expressed in 293-F cells pre-incubated for 20 mins before Gly-Pro-pNA substrate addition and measured after 90 mins; assay type: cell-based
Sequence of Dipeptidyl peptidase 8 (Q6V1X1 whole entry): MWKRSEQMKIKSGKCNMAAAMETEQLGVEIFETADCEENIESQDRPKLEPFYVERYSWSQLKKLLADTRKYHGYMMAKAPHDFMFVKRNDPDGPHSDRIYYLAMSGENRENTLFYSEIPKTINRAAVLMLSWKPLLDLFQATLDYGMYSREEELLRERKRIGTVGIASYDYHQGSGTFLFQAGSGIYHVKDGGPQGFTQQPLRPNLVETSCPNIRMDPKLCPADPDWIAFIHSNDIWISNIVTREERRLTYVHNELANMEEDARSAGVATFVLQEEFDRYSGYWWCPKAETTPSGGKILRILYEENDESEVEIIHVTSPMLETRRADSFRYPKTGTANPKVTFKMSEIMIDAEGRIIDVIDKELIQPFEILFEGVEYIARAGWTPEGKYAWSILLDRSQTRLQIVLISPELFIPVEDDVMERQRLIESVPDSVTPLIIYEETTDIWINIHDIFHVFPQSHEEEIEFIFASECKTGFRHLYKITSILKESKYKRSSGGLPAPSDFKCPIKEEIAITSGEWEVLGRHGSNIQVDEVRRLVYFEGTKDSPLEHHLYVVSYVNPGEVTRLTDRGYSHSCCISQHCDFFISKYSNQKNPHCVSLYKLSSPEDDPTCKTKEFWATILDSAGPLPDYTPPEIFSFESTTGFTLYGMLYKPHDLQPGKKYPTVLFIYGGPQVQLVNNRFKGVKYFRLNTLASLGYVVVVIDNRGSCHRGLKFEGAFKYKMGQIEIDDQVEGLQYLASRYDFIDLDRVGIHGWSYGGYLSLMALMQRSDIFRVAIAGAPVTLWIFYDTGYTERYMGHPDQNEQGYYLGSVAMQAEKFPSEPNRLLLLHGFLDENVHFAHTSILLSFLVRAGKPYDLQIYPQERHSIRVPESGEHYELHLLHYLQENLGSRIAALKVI

Sequence of Dipeptidyl peptidase 4 (P27487 whole entry): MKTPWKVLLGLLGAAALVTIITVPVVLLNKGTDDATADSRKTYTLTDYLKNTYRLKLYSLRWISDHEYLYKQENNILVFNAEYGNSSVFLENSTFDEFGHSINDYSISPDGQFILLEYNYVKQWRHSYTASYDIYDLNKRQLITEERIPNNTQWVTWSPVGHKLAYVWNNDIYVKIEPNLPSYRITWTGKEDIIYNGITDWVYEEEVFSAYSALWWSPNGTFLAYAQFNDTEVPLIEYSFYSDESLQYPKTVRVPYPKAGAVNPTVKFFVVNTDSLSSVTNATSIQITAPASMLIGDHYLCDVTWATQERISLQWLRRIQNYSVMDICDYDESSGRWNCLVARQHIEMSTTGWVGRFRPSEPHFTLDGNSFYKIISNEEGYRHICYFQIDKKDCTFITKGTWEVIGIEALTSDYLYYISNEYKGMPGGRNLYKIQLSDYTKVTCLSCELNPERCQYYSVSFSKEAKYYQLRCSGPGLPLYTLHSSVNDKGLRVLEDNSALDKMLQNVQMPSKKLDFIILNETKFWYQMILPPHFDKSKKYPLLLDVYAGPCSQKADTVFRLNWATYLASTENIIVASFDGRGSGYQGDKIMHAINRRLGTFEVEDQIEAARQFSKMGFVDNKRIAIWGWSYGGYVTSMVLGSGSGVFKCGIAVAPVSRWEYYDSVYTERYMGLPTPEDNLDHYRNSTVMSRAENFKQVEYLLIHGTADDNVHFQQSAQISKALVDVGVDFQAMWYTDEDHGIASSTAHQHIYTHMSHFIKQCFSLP

Q: How did the IC50 (Dipeptidyl peptidase 4) turn out when Cc1ccc(-c2c(CN)c(CC(C)C)nc(C)c2C(=O)OC[C@H]2CC[C@H](C(=O)O)CC2)cc1 was run?
A: 80 nM

Q: How did the IC50 (Dipeptidyl peptidase 4) turn out when Cc1ccc(-c2c(COCc3ccc(C(=O)O)cc3)c(C)nc(CC(C)C)c2CN)cc1 was run?
A: 7.2 nM

Q: Which IC50 (Dipeptidyl peptidase 4) does the source give for NCc1c(Cc2ccccc2)nc2ccc(OCC(N)=O)cc2c1-c1ccccc1 here?
A: 720 nM

Q: What does the source list for Cc1ccc(-c2c(CN)c(CC(C)C)nc3ccc(-c4nc(C(=O)O)cs4)cc23)cc1?
A: IC50 (Dipeptidyl peptidase 4): 0.38 nM; inhibition in vivo at 1 mg/kg (Rattus norvegicus): > 50%

Q: Which IC50 (Dipeptidyl peptidase 4) does the source give for Cc1ccc(-c2c(-c3nc(C(N)=O)cs3)cnc(CC(C)C)c2CN)cc1 here?
A: 2.1 nM

Q: With Cc1ccc(-c2c(CN)c(CC(C)C)nc(C)c2C(=O)OCCCC(=O)O)cc1 as the compound, how does the IC50 (Dipeptidyl peptidase 4) read?
A: 470 nM

Q: For Cc1ccc(-c2c(CN)c(CC(C)C)nc3ccc(OCCCC(=O)O)cc23)cc1, which IC50 (Dipeptidyl peptidase 4) is on record?
A: 17 nM

Q: Which IC50 (Dipeptidyl peptidase 4) does the source give for CC(C)Cc1nc2ccc(Br)cc2c(-c2ccccc2)c1CN here?
A: 630 nM

Q: Which IC50 (Dipeptidyl peptidase 4) does the source give for CCCCCc1nc2ccc(OCC(N)=O)cc2c(-c2ccccc2)c1CN here?
A: 540 nM

Q: Cc1ccc(-c2c(CN)c(CC(C)C)nc3ccc(OCCC(=O)O)cc23)cc1 was tested. Which IC50 (Dipeptidyl peptidase 4) did it give?
A: 29 nM

Q: With Cc1ccc(-c2c(CN)c(CC(C)C)nc3ccc(OCCCCCC(=O)O)cc23)cc1 as the compound, how does the IC50 (Dipeptidyl peptidase 4) read?
A: 6.8 nM

Q: Which IC50 (Dipeptidyl peptidase 4) does the source give for CC(C)Cn1c(CN)c(-c2ccccc2)c2cc(Br)ccc2c1=O here?
A: 1200 nM

Q: With Cc1ccc(-c2c(CN)c(CC(C)C)nc(C)c2C(=O)OCc2ccccc2C(=O)O)cc1 as the compound, how does the IC50 (Dipeptidyl peptidase 4) read?
A: 29 nM

Q: How did the IC50 (Dipeptidyl peptidase 4) turn out when Cc1ccc(-c2c(CN)c(CC(C)C)nc3ccc(OCCCCC(N)=O)cc23)cc1 was run?
A: 13 nM

Q: How did the IC50 (Dipeptidyl peptidase 4) turn out when Cc1ccc(-c2c(CN)c(CC(C)C)nc3ccc(OCC(=O)O)cc23)cc1 was run?
A: 140 nM

Q: Which IC50 (Dipeptidyl peptidase 4) does the source give for Cc1ccc(-c2c(CN)c(CC(C)C)nc(C)c2C(=O)OCc2cccc(C(=O)O)c2)cc1 here?
A: 87 nM

Q: CCCCc1nc2ccc(OCC(N)=O)cc2c(-c2ccccc2)c1CN was tested. Which IC50 (Dipeptidyl peptidase 4) did it give?
A: 620 nM

Q: For Cc1ccc(-c2c(CN)c(CC(C)C)nc3ccc(-c4ccc(C(=O)O)o4)cc23)cc1, which IC50 (Dipeptidyl peptidase 4) is on record?
A: 28 nM

Q: For CC(C)(C)Cc1nc2ccc(OCC(N)=O)cc2c(-c2ccccc2)c1CN, which IC50 (Dipeptidyl peptidase 4) is on record?
A: 250 nM

Q: CC(C)Cn1c(CN)c(-c2ccccc2)c2cc(Br)cnc2c1=O was tested. Which IC50 (Dipeptidyl peptidase 4) did it give?
A: 1200 nM

Q: With Cc1ccc(-c2c(CN)n(CC(C)C)c(=O)c3ccc(OCC(N)=O)cc23)cc1 as the compound, how does the IC50 (Dipeptidyl peptidase 4) read?
A: 220 nM

Q: Which IC50 (Dipeptidyl peptidase 4) does the source give for Cc1ccc(-c2c(CCc3nc(C(N)=O)cs3)c(C)nc(CC(C)C)c2CN)cc1 here?
A: 8.5 nM

Q: With CC(C)Cc1nc2ccc(C(N)=O)cc2c(-c2ccccc2)c1CN as the compound, how does the IC50 (Dipeptidyl peptidase 4) read?
A: 170 nM

Q: How did the IC50 (Dipeptidyl peptidase 4) turn out when CC(=O)c1csc(-c2cnc(CC(C)C)c(CN)c2-c2ccc(C)cc2)n1 was run?
A: 8.7 nM

Q: With Cc1ccc(-c2c(/C=C/c3nc(C(=O)O)cs3)c(C)nc(CC(C)C)c2CN)cc1 as the compound, how does the IC50 (Dipeptidyl peptidase 4) read?
A: 5.5 nM

Q: Cc1ccc(-c2c(CCc3nc(C(=O)O)cs3)c(C)nc(CC(C)C)c2CN)cc1 was tested. Which IC50 (Dipeptidyl peptidase 4) did it give?
A: 2.6 nM

Q: Which IC50 (Dipeptidyl peptidase 4) does the source give for Cc1ccc(-c2c(CN)c(CC(C)C)nc3ccc(OCCCCC(=O)O)cc23)cc1 here?
A: 4.6 nM

Q: Which results are given for Cc1ccc(-c2c(CN)c(CC(C)C)nc(C)c2C(=O)OCc2ccc(C(=O)O)cc2)cc1?
A: IC50 (Dipeptidyl peptidase 8): > 100000 nM; IC50 (Dipeptidyl peptidase 4): 17 nM

Q: How did the IC50 (Dipeptidyl peptidase 4) turn out when CCCc1nc2ccc(OCC(N)=O)cc2c(-c2ccccc2)c1CN was run?
A: 510 nM

Q: For CC(C)Cn1c(CN)c(-c2ccccc2)c2cc(C(N)=O)cnc2c1=O, which IC50 (Dipeptidyl peptidase 4) is on record?
A: 470 nM
